Source: US11628179B2, “Compounds for treating and preventing extracellular histone mediated pathologies” (priority 2017, dated 2023)
Where a name gives a salt, the structure may show the parent alone. Read-outs that look alike come from different tables or passages of the source.

Key:
Sprague-Dawley rats = system: Sprague-Dawley rats
Protocol: The objective of these studies was to determine the toxicity of the test item, mCBS, when administered by continuous (24 hours/day) intravenous infusion through a surgically implanted catheter for 7 consecutive days to Sprague-Dawley rats.
The test and control item dose formulations of mCBS (in the form of the heptasodium salt mCBS.Na) were administered to groups of rats by continuous (24 hours/day) intravenous infusion for 7 consecutive days as described in the Table 14 below.
Parameters monitored during this study included mortality, clinical observations, body weights and food consumption. In addition, hematology, coagulation and clinical chemistry parameters were evaluated on Day 9. Blood samples were collected from the animals at timepoints relative to the start of the infusion for analysis of test item concentration in plasma. At termination (Day 9), all animals were euthanized and subjected to a gross necropsy examination. Organ weights were measured on selected organs and a selected list of tissues, including gross lesions, were retained and prepared for microscopic evaluation.

human RBCs = experiment: Histone-induced RBC fragility / lysis under shear; format: cell-based
[1] = Pharmacokinetics, 5 hour intravenous infusion; format: in vivo, rat
Protocol: The pharmacokinetics (PK) of mCBS were studied following intravenous administration as an infusion over a 5 hours period to male Sprague Dawley rats. In this study the pharmacokinetics of the mCBS compound were investigated following intravenous infusion. The compound was formulated using Hartman's solution and administered to a group of n=3 rats at the rate of 25.3 mg/kg/h (total dose: 126.5 mg/kg; Group 1) and to a second group of n=3 rats at the rate of 50.6 mg/kg/h (total dose: 253 mg/kg; Group 2).
A total of six blood PK samples were collected from each rat at time points ranging from pre-dose to 5 hours after the start of the infusion. The resulting blood samples were processed to plasma, and subsequently analysed for the concentration of mCBS using an LC-MS/MS based method. Phoenix 64 WinNonlin® software was used to estimate area under the concentration versus time curve (AUC) values over the 0 to 5 h infusion interval. Values for concentration at steady state (Css) and clearance (Cl) were also estimated.

C57BI/6 mice = experiment: EAE model of multiple sclerosis; format: in vivo, mouse; conditions: 50 mg/kg i.p. daily day 0-9, 35 day window
Protocol: EAE Model of Multiple Sclerosis. EAE was induced in 8-12 week old C57BI/6 mice by subcutaneous immunisation with 115 μg/mouse myelin oligodendrocyte glycoprotein (MOG35-55 genscript) in Complete Freund's Adjuvant (Sigma) on day 1. 300 ng/mouse Pertussis toxin (List Biological Laboratories) in PBS was injected intra peritoneal (i.p.) on days 0 and 2. 50 mg/kg mCBS in PBS or PBS alone (vehicle) was given i.p. daily for day 0-9. Mice were monitored daily for signs of disease and were scored on a scale of 0-5 based on physical manifestations of disease. Mice were scored as follows: 0, clinically normal; 1, flaccid tail and/or ataxia; 2, hind limb weakness; 3, hind limb paralysis; 4, hind and front limb paralysis; and 5, moribund.

Wistar rats = experiment: Rat ischemia reperfusion tissue flap model; format: in vivo; conditions: 50 mg/kg i.p., 72 h
Description: Rat ischemia reperfusion tissue flap model. The procedure employed is largely based on a previously described method (Askar, I., Oktay, M. F., Gurlek, A. & Bac, B. Protective effects of some antineoplastic agents on ischemia-reperfusion injury in epigastric island skin flaps. Microsurgery 26, 193-199, doi:10.1002/micr.20193 (2006)). Briefly, male Wistar rats were anaesthetised, locally depilated and a 3 cm by 6 cm fasciocutaneous flap was excised leaving the vascular pedicle intact. […] The clamp was removed […] post-application permitting returned blood flow to the flap. Test compounds (50 mg kg^−1) or saline were administered i.p. 5 min prior to clamp application and 5 min following its removal. The rats were monitored for a total experimental period of 72 h during which rats received additional compound or saline i.p. at 24 and 48 h post-op. The ‘Control No Clamp’ rats had the tissue flap excised and rubber placed underneath prior to re-suturing, however, the vessel was not clamped and they received saline at the same time points as the other rats. At the end of the experimental period the viability of the flaps was determined by the percentage of black necrotic or reddened areas vs pink viable areas. […]

mice = experiment: In-vivo histone toxicity assay, circulating blood cells at 10 min; set-up: species or system mouse; conditions: 100 mg/kg i.p. 10 min prior to histones 50 mg/kg i.v.; bled 10 min later
Protocol: In-vivo histone toxicity assays. BALB/c female mice (5˜6 weeks of age), that are more prone to histone-induced anemia and easier to inject i.v. at this young age than C57BL/6 mice, were injected i.p. with test compounds at concentrations indicated 10 min prior to i.v. injection of histones (50 mg kg^−1) in phosphate buffered saline. Retro-orbital bleeds were performed at 10 min after histone injection and collected blood added to acid citrate dextrose (ACD), the 10 min blood sample being subjected to hematologic analyses for platelet and erythrocyte content using an ADVIA 2120i Hematology Analyzer. Spleens were also harvested at 10 min post-histone injection and splenic hemoglobin content quantified using a hemoglobin assay kit (Sigma-Aldrich). In the case of 4 h blood samples, male C57/BL/6 mice (6-8 weeks of age) were injected with test compounds and histones as above and plasma isolated and stored frozen for subsequent biochemical testing, with markers for liver (alanine aminotransferase, ALT), kidney (Creatinine, Crea) and general tissue (lactate dehydrogenase, LDH) damage being determined by the Department of Pathology, The Canberra Hospital.
Accordingly, the inventors in this example investigated the protective effect of mCBS on cells within the blood stream following intravenous injection of histones. […]

[2] = animals treated with 1394 mg/kg/day (free base)

For `CO[C@@H]1O[C@H](COS(=O)(=O)O)[C@@H](O[C@@H]2O[C@H](COS(=O)(=O)O)[C@@H](OS(=O)(=O)O)[C@H](OS(=O)(=O)O)[C@H]2OS(=O)(=O)O)[C@H](OS(=O)(=O)O)[C@H]1OS(=O)(=O)O` [mCBS, β-O-methyl cellobioside sulfate], the “AUC5-96 h and Css versus dose” value (Sprague-Dawley rats; 1394-5575 mg/kg/day) was “increased linearly with dose”, the “plasma concentration versus time” value (Sprague-Dawley rats; 5 h to 96 h (or 168 h) infusion interval) was “steady state concentrations of mCBS were maintained” and the liver microscopic findings (Sprague-Dawley rats; [2]) was “accumulation of foamy Kupffer cells”. For the same compound, the “lymph node microscopic findings” value (Sprague-Dawley rats; [2]) was “accumulation of foam macrophages”, the liver microscopic findings (Sprague-Dawley rats; animals treated with 2178 mg/kg/day (free base)) was “single cell necrosis” and the liver microscopic findings (Sprague-Dawley rats; animals treated with 2178 and 5575 mg/kg/day) was “focal or multiple focal necrosis”. The spleen microscopic findings (Sprague-Dawley rats; animals treated with ≤1394 mg/kg/day (so in the source), free base) was “accumulation of foamy macrophages associated with increased apoptotic cells in the red pulp”, the kidney microscopic findings (Sprague-Dawley rats; animals treated with ≤2178 mg/kg/day (so in the source), free base) was “proximal tubular vacuolation/rarefaction” and the “urea, total protein and albumin” value (Sprague-Dawley rats; both sexes at 5575 mg/kg/day) was “increase in urea and decreases in total protein and albumin”. For the same compound, the “white blood cell lines” value (Sprague-Dawley rats; both sexes at doses ≤3484 mg/kg/day (so in the source)) was “Increases in white blood cell lines”, the “body weight gain and food consumption” value (Sprague-Dawley rats; both sexes, 5575 mg/kg/day (free base)) was “Decreases in body weight gain” and the “No Observable Adverse Effect Level (NOAEL)” value (Sprague-Dawley rats; free base, corrected for potency and salt content, continuous IV infusion 7 days) was 1394 mg/kg/day. For the same compound, the “red blood cell parameters and reticulocytes” value (Sprague-Dawley rats; males at 5575 mg/kg/day) was “decreases in red blood cell counts, hemoglobin, hematocrit, mean corpuscular volume and mean corpuscular hemoglobin concentration as well as increases in the reticulocytes”, the “activated partial thromboplastin time” value (Sprague-Dawley rats; males at doses 2178 mg/kg/day, females at doses ≤3484 mg/kg/day (so in the source)) was “Increases in activated partial thromboplastin time” and the “Liver enzymes (ALT, AST), cholesterol and triglycerides” value (Sprague-Dawley rats; males dosed at 5575 mg/kg/day) was “increased”. For the same compound, the “inhibition of histone-induced RBC lysis under shear” value (human RBCs; 0-200 μg/mL prior to 400 μg/mL histones 60 min, 100 mm/s, 40× repetitions) was “inhibit histone-induced lysis under shear in a dose-dependent manner”, the “reversal of histone-induced RBC susceptibility to lysis” value (human RBCs; histones 400 μg/mL 55 min, then mCBS 5 min) was “near complete inhibition” and the “Cl, mean (±SEM)” value ([1]; Group 1, 25.3 mg/kg/h) was 0.601 (±0.081) l/h/kg. The “Css, mean (±SEM)” value ([1]; Group 1, 25.3 mg/kg/h) was 58,400 (±6,920) ng/ml, the “AUC 0-5 h infusion interval, mean (±SEM)” value ([1]; Group 1, IV infusion 25.3 mg/kg/h for 5 h) was 260,000 (±30,200) ng·h/mL and the “Cl, mean (±SEM)” value ([1]; Group 2, 50.6 mg/kg/h) was 0.571 (±0.025). For the same compound, the “Css, mean (±SEM)” value ([1]; Group 2, 50.6 mg/kg/h) was 120,000 (±5,560) ng/ml, the “AUC 0-5 h infusion interval, mean (±SEM)” value ([1]; Group 2, IV infusion 50.6 mg/kg/h for 5 h) was 532,000 (±25,500) ng·h/mL and the “time of infusion to reach steady state plasma level (Css)” value ([1]; IV infusion) was 2 h. The “Css and AUC at 50 mg/kg/hr compared to 25 mg/kg/hr” value ([1]; IV infusion 5 h) was 2 fold, the “APTT (coagulation test)” value ([1]; rats treated with the higher dose) was “higher APTT score compared to the reference range” and the “protection from EAE development” value (C57BI/6 mice) was “substantial protection”. For the same compound, the “viable area of the skin flap” value (Wistar rats) was “consistently and significantly increased the viable area of the skin flap” and the “histone-mediated reductions in circulating leukocytes, platelets, erythrocytes and haemoglobin” value (mice) was “significantly inhibited if not completely abolished”.
